Test results from ChEMBL document CHEMBL5236646, “Design, synthesis, and biological evaluation of BRD4 degraders” (Bioorg Med Chem, 2023).
The source made the active and inactive calls. The rule behind the calls is not given here.

What was measured:
[1] = biological target: T1, Protein cereblon/Bromodomain-containing protein 4 (Homo sapiens) (UniProt O60885+Q96SW2); experiment: Protac activity at CRBN/BRD4 in human MM1.S cells assessed as induction of BRD4 protein degradation by measuring residual activity at 100 nM measured after 6 hrs by Western blot analysis (reference value: 100%); type: cell-based
[2] = biological target: T1, Protein cereblon/Bromodomain-containing protein 4 (Homo sapiens); experiment: Protac activity at CRBN/BRD4 in human MM1.S cells assessed as induction of BRD4 protein degradation by measuring residual activity at 0.01 uM incubated for 3 hrs by Western blot analysis relative to control; type: cell-based
[3] = biological target: T1, Protein cereblon/Bromodomain-containing protein 4 (Homo sapiens); experiment: Protac activity at CRBN/BRD4 in human MM1.S cells assessed as induction of BRD4 protein degradation by measuring residual activity at 300 nM measured after 1 hr by Western blot analysis (reference value: 317%); type: cell-based
[4] = biological target: T1, Protein cereblon/Bromodomain-containing protein 4 (Homo sapiens); experiment: Protac activity at CRBN/BRD4 in human MM1.S cells assessed as induction of BRD4 protein degradation by measuring residual activity at 300 nM preincubated with tert-butyl (S)-2-(4-(4-chlorophenyl)-2,3,9-trimethyl-6H-thieno[3,2-f][1,2,4]triazolo[4,3-a][1,4]diazepin-6-yl)acetate for 2 hrs followed by compound addition and measured after 6 hrs by Western blot analysis (reference value: 100%); type: cell-based
[5] = Inhibition of TGF-beta induced activation of human MRC5 cells assessed as residual BRD4 protein level at 10 uM by Western blot analysis (reference value: 100%); type: functional
[6] = biological target: T1, Protein cereblon/Bromodomain-containing protein 4 (Homo sapiens); experiment: Protac activity at CRBN/BRD4 in human MM1.S cells assessed as induction of BRD4 protein degradation by measuring residual activity at 300 nM preincubated with lenalidomide for 2 hrs followed by compound addition and measured after 6 hrs by Western blot analysis (reference value: 100%); type: cell-based
[7] = biological target: T1, Protein cereblon/Bromodomain-containing protein 4 (Homo sapiens); experiment: Protac activity at CRBN/BRD4 in human MM1.S cells assessed as induction of BRD4 protein degradation by measuring residual activity at 300 nM measured after 9 hrs by Western blot analysis (reference value: 317%); type: cell-based
[8] = biological target: T1, Protein cereblon/Bromodomain-containing protein 4 (Homo sapiens); experiment: (§1) Protac activity at CRBN/BRD4 in human MV4-11 cells assessed as induction of BRD4 protein degradation by measuring residual activity at 30 nM preincubated with lenalidomide for 2 hrs followed by compound addition and measured after 6 hrs by Western blot analysis (reference value: 100%); type: cell-based
[9] = biological target: T1, Protein cereblon/Bromodomain-containing protein 4 (Homo sapiens); experiment: Protac activity at CRBN/BRD4 in human MV4-11 cells assessed as downregulation of MYC protein expression at 30 uM incubated for 3 hrs by Western blot analysis; type: cell-based
[10] = biological target: T1, Protein cereblon/Bromodomain-containing protein 4 (Homo sapiens); experiment: Protac activity at CRBN/BRD4 in human MM1.S cells assessed as induction of BRD4 protein degradation by measuring residual activity at 1000 nM measured after 6 hrs by Western blot analysis (reference value: 100%); type: cell-based
[11] = Inhibition of TGF-beta induced activation of human MRC5 cells assessed as residual BRD4 protein level at 1 uM by Western blot analysis (reference value: 96%); type: functional
[12] = biological target: T1, Protein cereblon/Bromodomain-containing protein 4 (Homo sapiens); experiment: Protac activity at CRBN/BRD4 in human MV4-11 cells assessed as induction of BRD4 protein degradation by measuring residual activity at 0.003 uM incubated for 3 hrs by Western blot analysis relative to control; type: cell-based
[13] = biological target: T1, Protein cereblon/Bromodomain-containing protein 4 (Homo sapiens); experiment: Protac activity at CRBN/BRD4 in human MV4-11 cells assessed as induction of BRD4 protein degradation by measuring residual activity at 30 nM measured immediately by Western blot analysis (reference value: 100%); type: cell-based
MM1.S = experiment: Antiproliferative activity against human MM1.S cells assessed as inhibition of cell growth incubated for 72 hrs MTS assay; type: functional, cell-based
[14] = Inhibition of TGF-beta induced activation of human MRC5 cells assessed as residual BRD4 protein level at 0.5 uM by Western blot analysis (reference value: 96%); type: functional
[15] = biological target: T1, Protein cereblon/Bromodomain-containing protein 4 (Homo sapiens); experiment: Protac activity at CRBN/BRD4 in human MV4-11 cells assessed as induction of BRD4 protein degradation by measuring residual activity at 1 nM measured after 6 hrs by Western blot analysis (reference value: 100%); type: cell-based
[16] = Inhibition of TGF-beta induced activation of human MRC5 cells assessed as residual BRD4 protein level at 5 uM by Western blot analysis (reference value: 96%); type: functional
[17] = biological target: T1, Protein cereblon/Bromodomain-containing protein 4 (Homo sapiens); experiment: as §1, with “tert-butyl (S)-2-(4-(4-chlorophenyl)-2,3,9-trimethyl-6H-thieno[3,2-f][1,2,4]triazolo[4,3-a][1,4]diazepin-6-yl)acetate” for “lenalidomide”; type: cell-based
[18] = biological target: T1, Protein cereblon/Bromodomain-containing protein 4 (Homo sapiens); experiment: Protac activity at CRBN/BRD4 in human MM1.S cells assessed as induction of BRD4 protein degradation by measuring residual activity at 0.03 uM incubated for 3 hrs by Western blot analysis relative to control; type: cell-based
[19] = biological target: T1, Protein cereblon/Bromodomain-containing protein 4 (Homo sapiens); experiment: Protac activity at CRBN/BRD4 in human MV4-11 cells assessed as induction of BRD4 protein degradation by measuring residual activity at 30 nM measured after 3 hrs by Western blot analysis (reference value: 100%); type: cell-based
[20] = biological target: T1, Protein cereblon/Bromodomain-containing protein 4 (Homo sapiens); experiment: Protac activity at CRBN/BRD4 in human MV4-11 cells assessed as induction of BRD4 protein degradation by measuring residual activity at 30 nM measured after 9 hrs by Western blot analysis (reference value: 100%); type: cell-based
[21] = biological target: T1, Protein cereblon/Bromodomain-containing protein 4 (Homo sapiens); experiment: Protac activity at CRBN/BRD4 in human MV4-11 cells assessed as induction of BRD4 protein degradation by measuring residual activity at 3 nM measured after 6 hrs by Western blot analysis (reference value: 100%); type: cell-based
[22] = biological target: T1, Protein cereblon/Bromodomain-containing protein 4 (Homo sapiens); experiment: Protac activity at CRBN/BRD4 in human MM1.S cells assessed as induction of BRD4 protein degradation by measuring residual activity at 300 nM measured immediately by Western blot analysis (reference value: 317%); type: cell-based
[23] = biological target: T1, Protein cereblon/Bromodomain-containing protein 4 (Homo sapiens); experiment: Protac activity at CRBN/BRD4 in human MV4-11 cells assessed as induction of BRD4 protein degradation by measuring residual activity at 10 nM measured after 6 hrs by Western blot analysis (reference value: 100%); type: cell-based
MRC5 = experiment: Inhibition of TGF-beta induced activation of human MRC5 cells assessed as downregulation of alpha-SMA protein expression at 0.1 to 10 uM by Western blot analysis; type: functional, cell-based; details: dose 0.1-10 µM
[24] = biological target: T1, Protein cereblon/Bromodomain-containing protein 4 (Homo sapiens); experiment: Protac activity at CRBN/BRD4 in human MM1.S cells assessed as induction of BRD4 protein degradation by measuring residual activity at 300 nM measured after 6 hrs by Western blot analysis (reference value: 100%); type: cell-based
[25] = biological target: T1, Protein cereblon/Bromodomain-containing protein 4 (Homo sapiens); experiment: Protac activity at CRBN/BRD4 in human MM1.S cells assessed as induction of BRD4 protein degradation by measuring residual activity at 10 nM measured after 6 hrs by Western blot analysis (reference value: 100%); type: cell-based
[26] = biological target: T1, Protein cereblon/Bromodomain-containing protein 4 (Homo sapiens); experiment: Protac activity at CRBN/BRD4 in human MV4-11 cells assessed as induction of BRD4 protein degradation by measuring residual activity at 30 nM measured after 6 hrs by Western blot analysis (reference value: 100%); type: cell-based
[27] = biological target: T1, Protein cereblon/Bromodomain-containing protein 4 (Homo sapiens); experiment: Protac activity at CRBN/BRD4 in human MM1.S cells assessed as induction of BRD4 protein degradation by measuring residual activity at 300 nM measured after 6 hrs by Western blot analysis (reference value: 317%); type: cell-based
[28] = biological target: T1, Protein cereblon/Bromodomain-containing protein 4 (Homo sapiens); experiment: Protac activity at CRBN/BRD4 in human MV4-11 cells assessed as induction of BRD4 protein degradation by measuring residual activity at 100 nM measured after 6 hrs by Western blot analysis (reference value: 100%); type: cell-based

T1 sequence (Q96SW2 whole entry, looked up, other chains not shown): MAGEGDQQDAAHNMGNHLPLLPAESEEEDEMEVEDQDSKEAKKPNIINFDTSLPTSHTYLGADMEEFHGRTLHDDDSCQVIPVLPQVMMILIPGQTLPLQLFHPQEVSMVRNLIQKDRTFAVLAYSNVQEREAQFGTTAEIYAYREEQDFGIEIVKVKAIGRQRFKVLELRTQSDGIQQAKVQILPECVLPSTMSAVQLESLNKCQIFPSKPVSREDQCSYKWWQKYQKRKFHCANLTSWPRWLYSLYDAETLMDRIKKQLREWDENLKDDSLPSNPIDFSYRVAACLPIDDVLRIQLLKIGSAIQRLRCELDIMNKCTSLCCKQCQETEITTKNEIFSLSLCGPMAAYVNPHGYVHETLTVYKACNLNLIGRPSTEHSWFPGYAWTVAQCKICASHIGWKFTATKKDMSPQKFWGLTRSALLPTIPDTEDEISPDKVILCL

Activity [1]: 24%
Activity [2]: 93%
Activity [3]: 129%
Activity [4]: 61%
Activity [6]: 67%
Activity [7]: 50%
Activity [8]: 85%
Activity [9]: Active
Activity [10]: 10%
Activity [12]: 66%
Activity [13]: 110%
IC50 (MM1.S): 27 nM
Activity [15]: 107%
Activity [17]: 84%
Activity [18]: 81%
Activity [19]: 72%
Activity [20]: 49%
Activity [21]: 80%
Activity [22]: 362%
Activity [23]: 41%
Activity [24]: 17%
Activity [25]: 62%
Activity [26]: 13%
Activity [27]: 18%
Activity [28]: 28%
Compound: Cc1sc2c(c1C)C(c1ccc(Cl)cc1)=N[C@@H](CC(=O)NCCCCC(=O)NCCNc1cccc3c1C(=O)N(C1CCC(=O)NC1=O)C3=O)c1nnc(C)n1-2 (stereo not given in full)
Activity [5]: 25%
Activity [11]: 40%
Activity [14]: 26%
Activity [16]: 33%
inhibition (MRC5): Active
